Laboratory results: patent US10603322B2, “Therapeutic targeting of casein kinase 1δ in breast cancer” (The Scripps Research Institute, priority 2015, dated 2020)

Legend:
[1] = test system: breast cancer cell types overexpressing CK1δ; test: Cell proliferation assay (Cell-Titer Glo, 72 hr); assay type: cell-based; conditions: Homo sapiens
Description: Cell proliferation was measured 72 hr after SR-3029 or vehicle treatment using Cell-Titer Glo (Promega) according to the manufacturers' instructions. EC50 values were determined using non-linear regression and a four-parameter algorithm (GraphPad Prism5). For clonogenic assays, cells were plated in 6-well dishes in triplicate at a density of 500-1000 cells per well. After overnight incubation, SR-3029 or vehicle (DMSO) was added to media for 72 hr and cells were allowed to grow out for 7-10 days, during which media was changed every 2-3 days in the absence of compound. Colonies were fixed in 4% paraformaldehyde/PBS and stained with 0.5% methylene blue in 50% ethanol for 1 hr at room temperature and de-stained with water. Colonies with greater than 50 cells were counted using a low magnification light microscope.

[2] = test system: CK1δ overexpressing breast cancer cells; test: Apoptosis by PI/Annexin V FACS; assay type: cell-based, human; conditions: 72 hr treatment
Description: 2×10^5 cells seeded in triplicate in 6-well dishes were cultured with SR-3029 or vehicle for 72 hr. Cells were then harvested and stained with Annexin V-FITC and PI using the Annexin V-FITC Apoptosis Detection Kit (BioVision) per the manufacturer's instructions and analyzed using the LSRI II flow cytometer (Becton Dickinson). Staurosporine (Cell Signaling) treated cells (1 μM) were used as positive/compensation controls.

MDA-MB-231-luc tumors = test: Orthotopic MDA-MB-231-luc tumor model, treatment from day 7; assay type: in vivo, nude mice; conditions: 20 mg/kg daily i.p.
Source text: (§1) All animal studies are approved by the Scripps Florida IACUC. Stable pools of MDA-MB-231-Luc, MDA-MB-231, MDA-MB-468, SKBR3 or BT474 cells were established by injection of 2×10^6 cancer cells into the mammary fat pads of 6-week old female athymic nude mice (Charles River Laboratories). Establishment of BCM-4013 patient derived xenografts were as described (19). Briefly, fresh xenograft tumor fragments (˜1 mm^3) were transplanted into the cleared mammary fat pad of recipient SCID/Bg mice (Charles River Laboratories). Mice were treated with SR-3029 or vehicle (10:10:80, DMSO:Tween-80:Water) at 20 mg/kg daily by i.p. injection. Tumor volumes were measured as the indicated intervals using calipers or by luminescence imaging using the IVIS 100 imager (exposure time, 1-60 sec; binning 8; field of view 15-cm; f/stop 1; open filter) following subcutaneous injection of luciferin (15 mg/ml, Goldbio Technology). Average radiance (p/s/cm^2/sr) was determined from tumor region-of-interest (ROI) using Living-Image (Xenogen) analysis software.

BCM-4013 PDX tumors = test: Patient-derived xenograft (PDX) model; assay type: in vivo, SCID/Bg mice; conditions: 20 mg/kg daily i.p.
Source text: as §1
For apoptotic detection in cryosections tumors and small intestines were fixed in 10% buffered formalin for 2 hr, incubated in 20% sucrose overnight and embedded in OCT. Frozen sections ([…]) were mounted and stained using the ApopTag Red In Situ Kit according to the manufacturer instructions (CHEMICON). […]

[3] = Tolerability of long-term daily dosing; assay type: in vivo, mice
Source text: as §1
For apoptotic detection in cryosections tumors and small intestines were fixed in 10% buffered formalin for 2 hr, incubated in 20% sucrose overnight and embedded in OCT. Frozen sections ([…]) were mounted and stained using the ApopTag Red In Situ Kit according to the manufacturer instructions (CHEMICON). For H&E staining, tissues were fixed in 10% buffered formalin for 48 hr, transferred to 70% ethanol/PBS and embedded in paraffin. Staining was performed on […] sections following deparaffinization (AML Laboratories).

β-catenin = β-catenin expression by immunoblot in breast cancer cells; assay type: cell-based, human; conditions: 18 hr
Description: (§2) SDS-PAGE gel electrophoresis was performed using NuPAGE 4-12% Bis-Tris gels (Invitrogen) and transferred to PVDF membranes by semi-dry transfer using trans-blot transfer medium (Biorad). Membranes were blocked in Odyssey blocking buffer (LI-COR Biosciences) and incubated overnight at 4° C. with primary antibodies. After repeated washes with TBST (20 mM Tris, pH 7.6, 140 mM NaCl and 0.1% Tween-20) blots were incubated with the appropriate IRDye-conjugated secondary antibody (LI-COR Biosciences) and imaged using the LI-COR Odyssey. Bands were quantified using the Odyssey software (LI-COR Biosciences). The following antibodies were used in this study: CK1δ and Histone H4 (Abcam), CK1ε, c-Myc (9E10), Cyclin-D1 and β-actin (Santa Cruz), β-catenin (Cell Signaling), GAPDH (Millipore) and CD44 (R&D Systems).

[4] = test system: β-catenin/TCF target genes; test: Expression of Wnt/β-catenin and Notch pathway genes (immunoblot, qPCR); assay type: cell-based, human; conditions: 24 hr, 100 nM
Description: as §2
Total RNA was obtained using the RNeasy Plus Mini Kit (Qiagen) and 1-2 μg of RNA was reverse transcribed with Superscript III First Strand Synthesis System (Life Technologies). Quantitative PCR was performed using the Power SYBR Green PCR Master Mix (Life Technologies) and the ABI7900HT Fast Real-Time PCR System. Intron-spanning gene-specific primer pairs were designed using the Primer3 algorithm and relative expression values for each gene of interest obtained by normalizing to GAPDH mRNA expression using the ^ΔΔCt method.

[5] = in vivo; cited from earlier work

In the case of `Fc1cccc(-n2cnc3c(NCc4nc5ccc(F)c(F)c5[nH]4)nc(N4CCOCC4)nc32)c1` [SR-3029], the EC50 [1] is reported as 5 to 70 nM, the apoptosis [2] is reported as “selectively triggered rapid apoptosis” and the tumor growth (MDA-MB-231-luc tumors; single agent, start seven days after engraftment) is reported as “markedly impaired tumor growth”. For the same compound, the “recipients that developed tumors” value (MDA-MB-231-luc tumors; n=8 per cohort) was 2, the “tumor cell apoptosis (TUNEL)” value (BCM-4013 PDX tumors) was “triggered tumor cell apoptosis” and the “growth of PDX tumors” value (BCM-4013 PDX tumors; p=0.0002) was “significantly inhibited the growth”. The “tolerability: body weight, blood chemistry and tissue integrity by histochemistry” value ([3]; long-term daily dosing (48 days), 20 mg/kg i.p.) was “well tolerated, with no overt toxicity”, the “small intestine apoptosis, TUNEL staining” value ([3]; long-term treatment) was “failed to detect evidence of apoptosis” and the “small intestine integrity, H&E staining” value ([3]; long-term treatment) was “no gross morphological defects”. The “expression of the active, nuclear pool of β-catenin” value (β-catenin; MDA-MB-231, MDA-MB-436, MDA-MB-468 and BT474 cells, 30 nM) was “markedly reduced”, the “unphosphorylated, active form of β-catenin (ABC)” value (β-catenin; MDA-MB-231 cells) was “reduction” and the “Notch pathway mRNAs (JAG1, NUMB, DTX)” value [4] was “no effect”. The “expression of endogenous β-catenin/TCF target genes (CCND1, MYC, CD44, WNT3, WNT9A)” value [4] was “repressed”, the “expression of the endogenous Wnt antagonist SFRP1” value [4] was “marked increase” and the pharmacokinetic properties [5] was “amenable for in vivo studies”.
